Results: patent publication US20090291064A1 (priority 2008, published 2009)
Where two headings read alike, the source gives them in different places.

Tests used:
[1] = system: CYP 1A2
Experimental: (§1) Several CYP450 enzymatic activities were investigated in PICM-19H cells to determine the presence and inducible nature of major CYP450 isoforms. […] Cells were washed with PBS and appropriate inducer medium was added for 48 h prior to experimentation.
(§2) CYP450 activity was assessed in T25 cultures of PICM-19H cells that were grown for 3 wk post-passage. T25 cultures of APH or HepG2 C3A cells were tested after 3 d of primary culture and at 1 wk post-passage or near confluency, respectively. […] After the initial induction, cells were washed and given a non-fluorescent substrate for CYP1A1, CYP1A2, CYP2, or CYP3A (7-ERF, 7-MRF, MFC, and BFC, respectively). […] Medium samples were collected, centrifuged to remove cell debris (14,000×g, 2 min) and frozen at −80° C. until analyzed. […] Briefly, samples were incubated at 37° C. with or without β-glucuronidase/arylsulphatase (15 Fishman/120 Roy units/ml, Roche Applied Sciences) in pH 4.5 acetate buffer for 2 h to release any fluorescent reaction product that had been conjugated via sulfation or glucurondation phase II conjugation reactions. Standard curves contained resorufin or 7-HFC were treated identically to the experimental medium samples. Fluorescence was determined in an HTS 7000 plate reader; excitation/emission filter pairs were 530/590 and 410/510 for resorufin and 7-HFC, respectively. To determine relative conjugation activity, fluorescence was also determined directly without incubating first in β-glucuronidase/arylsulphatase. Since conjugated forms of resorufin and 7-HFC are non-fluorescent, the difference between the direct and indirect fluorescence measurements represents the amount of product which had been modified by conjugating enzymes.

[2] = system: CYP1A1; conditions: pig
Experimental: as §1, §2

[3] = system: CYP2
Experimental: as §1, §2

[4] = system: CYP3A
[5] = system: PICM-19H cells
[6] = in vitro; conditions: pig, LC50, WST-1 viability

Structure (SMILES): Cc1ccc2cc3c(ccc4ccccc43)c3c2c1CC3 [3-MC, 3-methylcholanthrene]
- induction of MROD activity ([1]; PICM-19H cells, 48 h with 5 μM 3-MC, vs non-induced): 5.5 fold
- increase in EROD activity [2]: 198 fold
- MFCD activity induction (in words) ([3]; PICM-19H cells, 48 h with 1 mM PHB, 50 μM Rif or 5 μM 3-MC): equally induced
- induction of BFCD activity ([4]; PICM-19H cells, 48 h with 5 μM 3-MC): 5.8 fold

Structure (SMILES): CCC1(c2ccccc2)C(=O)NC(=O)NC1=O [PHB, phenobarbital]
- MROD activity (in words) [1]: low
- increase in EROD activity [2]: 7 fold
- MFCD activity induction (in words) [3]: equally induced
- increase in BFCD activity compared to non-induced controls ([4]; pig): approximately 50%

Structure (SMILES): CC(=O)Nc1ccc(O)cc1 [acetaminophen]
- toxicity in glutathione-depleted cells [5]: enhanced
- CC50 ([5]; pig): ~13 mM
- CC50 [6]: 12.6 ± 0.75 mM
